According to PubChem BioAssay AID1259407 (Chemical Carcinogenesis Research Information System (CCRIS), 2018):
Calls of active or inactive are those of the source. How the calls were made is not given here.

Tested on: CCRIS mutagenicity, Ames/micronucleus/aberration tests
Assay: CCRIS mutagenicity studies
[1] = Test System: Ames Salmonella typhimurium, Strain/Indicator: TA102, Metabolic Activation: None, Method: Preincubation
[2] = Test System: AMES SALMONELLA TYPHIMURIUM, Strain/Indicator: TA98, Metabolic Activation: NONE, Method: STANDARD PLATE
[3] = Test System: AMES SALMONELLA TYPHIMURIUM, Strain/Indicator: TA98, Metabolic Activation: RAT, LIVER, S-9, AROCLOR 1254, Method: STANDARD PLATE
[4] = Test System: AMES SALMONELLA TYPHIMURIUM, Strain/Indicator: TA100, Metabolic Activation: NONE, Method: STANDARD PLATE
[5] = Test System: AMES SALMONELLA TYPHIMURIUM, Strain/Indicator: TA100, Metabolic Activation: RAT, LIVER, S-9, AROCLOR 1254, Method: STANDARD PLATE
[6] = Test System: AMES SALMONELLA TYPHIMURIUM, Strain/Indicator: TA1537, Metabolic Activation: NONE, Method: STANDARD PLATE

Structure (SMILES): O=C1c2c(O)cc(O)cc2O[C@H](c2ccc(O)c(O)c2)[C@H]1O
- mutagenic call (Test System: Ames Salmonella typhimurium, Strain/Indicator: TA102, Metabolic Activation: Fe ++ (1 uM) with NADPH generating system, Method: Preincubation): inactive; negative
- mutagenic call [1]: inactive; negative
- mutagenic call (Test System: Ames Salmonella typhimurium, Strain/Indicator: TA102, Metabolic Activation: Rat, Liver, S-9, Aroclor 1254, Method: Preincubation): inactive; negative
- mutagenic call (Test System: Ames Salmonella typhimurium, Strain/Indicator: TA102, Metabolic Activation: Rat, Liver, S-9, Aroclor 1254 in 0.154 M KCl, Method: Preincubation): inactive; negative
- mutagenic call (Test System: E. coli, Strain/Indicator: WP2 uvrA, Metabolic Activation: Fe ++ (1 uM) with NADPH generating system, Method: Preincubation): inactive; negative. authors say results are positive at 100 and 250 um but results are bar
- mutagenic call (Test System: E. coli, Strain/Indicator: WP2 uvrA, Metabolic Activation: None, Method: Preincubation): inactive; negative
- mutagenic call (Test System: E. coli, Strain/Indicator: WP2 uvrA, Metabolic Activation: Rat, Liver, S-9, Aroclor 1254, Method: Preincubation): inactive; negative

Structure (SMILES): Nc1ccc(O)c2c1C(O)=CC(=O)C2=O
- mutagenic call (Test System: Ames Salmonella typhimurium, Strain/Indicator: TA97, Metabolic Activation: None, Method: Preincubation): inactive; negative
- mutagenic call (Test System: Ames Salmonella typhimurium, Strain/Indicator: TA97, Metabolic Activation: Rat, Liver, S9, Aroclor 1254, Method: Preincubation): inactive; negative
- mutagenic call (Test System: Ames Salmonella typhimurium, Strain/Indicator: TA98, Metabolic Activation: None, Method: Preincubation): active; positive
- mutagenic call (Test System: Ames Salmonella typhimurium, Strain/Indicator: TA98, Metabolic Activation: Rat, Liver, S9, Aroclor 1254, Method: Preincubation): inactive; negative
- mutagenic call (Test System: Ames Salmonella typhimurium, Strain/Indicator: TA100, Metabolic Activation: None, Method: Preincubation): inactive; negative
- mutagenic call (Test System: Ames Salmonella typhimurium, Strain/Indicator: TA100, Metabolic Activation: Rat, Liver, S9, Aroclor 1254, Method: Preincubation): inactive; negative
- mutagenic call [1]: inactive; negative
- mutagenic call (Test System: Ames Salmonella typhimurium, Strain/Indicator: TA102, Metabolic Activation: Rat, Liver, S9, Aroclor 1254, Method: Preincubation): active; positive

Structure (SMILES): Cc1ccc(NC2OC[C@@H](O)[C@@H](O)[C@@H]2O)cc1 (stereo not given in full)
- mutagenic call (Test System: AMES SALMONELLA TYPHIMURIUM, Strain/Indicator: TA100, Metabolic Activation: NONE, Method: LIQUID INCUBATION): active; positive

Structure (SMILES): Clc1ccncc1
- mutagenic call (Test System: AMES SALMONELLA TYPHIMURIUM, Strain/Indicator: TA97, Metabolic Activation: NONE, Method: STANDARD PLATE): inactive; negative
- mutagenic call (Test System: AMES SALMONELLA TYPHIMURIUM, Strain/Indicator: TA97, Metabolic Activation: RAT, LIVER, S-9, AROCLOR 1254, Method: STANDARD PLATE): inactive; negative
- mutagenic call [2]: inactive; negative
- mutagenic call [3]: inactive; negative
- mutagenic call [4]: inactive; negative
- mutagenic call [5]: inactive; negative
- mutagenic call (Test System: AMES SALMONELLA TYPHIMURIUM, Strain/Indicator: TA102, Metabolic Activation: NONE, Method: STANDARD PLATE): inactive; negative
- mutagenic call (Test System: AMES SALMONELLA TYPHIMURIUM, Strain/Indicator: TA102, Metabolic Activation: RAT, LIVER, S-9, AROCLOR 1254, Method: STANDARD PLATE): inactive; negative

Structure (SMILES): N=C(N)c1ccc2c(N)c(C(=N)N)[nH]c2c1
- mutagenic call [2]: inactive; negative
- mutagenic call (Test System: AMES SALMONELLA TYPHIMURIUM, Strain/Indicator: TA98, Metabolic Activation: RAT, LIVER, S-9, PHENOBARBITAL, Method: STANDARD PLATE): inactive; negative
- mutagenic call [4]: inactive; negative
- mutagenic call (Test System: AMES SALMONELLA TYPHIMURIUM, Strain/Indicator: TA100, Metabolic Activation: RAT, LIVER, S-9, PHENOBARBITAL, Method: STANDARD PLATE): inactive; negative

Structure (SMILES): CN(N=O)C(=O)Oc1ccccc1Cl
- mutagenic call (Test System: E. COLI WP2, Strain/Indicator: WP2, Metabolic Activation: NONE, Method: STANDARD PLATE): active; positive

Structure (SMILES): CC(=O)Nc1ccc(/C=N/n2nnc3c([nH]c4ccccc43)c2=O)cc1
- mutagenic call (Test System: AMES SALMONELLA TYPHIMURIUM, Strain/Indicator: TA97, Metabolic Activation: NONE, Method: PREINCUBATION): active; positive
- mutagenic call (Test System: AMES SALMONELLA TYPHIMURIUM, Strain/Indicator: TA97, Metabolic Activation: RAT, LIVER, S-9, AROCLOR 1254 (10%), Method: PREINCUBATION): active; positive
- mutagenic call (Test System: AMES SALMONELLA TYPHIMURIUM, Strain/Indicator: TA98, Metabolic Activation: NONE, Method: PREINCUBATION): active; positive
- mutagenic call (Test System: AMES SALMONELLA TYPHIMURIUM, Strain/Indicator: TA98, Metabolic Activation: RAT, LIVER, S-9, AROCLOR 1254 (10%), Method: PREINCUBATION): active; positive
- mutagenic call (Test System: AMES SALMONELLA TYPHIMURIUM, Strain/Indicator: TA100, Metabolic Activation: NONE, Method: PREINCUBATION): active; positive
- mutagenic call (Test System: AMES SALMONELLA TYPHIMURIUM, Strain/Indicator: TA100, Metabolic Activation: RAT, LIVER, S-9, AROCLOR 1254 (10%), Method: PREINCUBATION): active; positive
- mutagenic call (Test System: AMES SALMONELLA TYPHIMURIUM, Strain/Indicator: TA102, Metabolic Activation: NONE, Method: PREINCUBATION): inactive; negative
- mutagenic call (Test System: AMES SALMONELLA TYPHIMURIUM, Strain/Indicator: TA102, Metabolic Activation: RAT, LIVER, S-9, AROCLOR 1254 (10%), Method: PREINCUBATION): inactive; negative

Structure (SMILES): N#CCCN
- mutagenic call (Test System: AMES SALMONELLA TYPHIMURIUM, Strain/Indicator: TA98, Metabolic Activation: HAMSTER, LIVER, S-9, AROCLOR 1254, Method: STANDARD PLATE): inactive; negative
- mutagenic call [2]: inactive; negative
- mutagenic call [3]: inactive; negative
- mutagenic call (Test System: AMES SALMONELLA TYPHIMURIUM, Strain/Indicator: TA100, Metabolic Activation: HAMSTER, LIVER, S-9, AROCLOR 1254, Method: STANDARD PLATE): inactive; negative
- mutagenic call [4]: inactive; negative
- mutagenic call [5]: inactive; negative
- mutagenic call (Test System: AMES SALMONELLA TYPHIMURIUM, Strain/Indicator: TA1535, Metabolic Activation: HAMSTER, LIVER, S-9, AROCLOR 1254, Method: STANDARD PLATE): inactive; negative
- mutagenic call (Test System: AMES SALMONELLA TYPHIMURIUM, Strain/Indicator: TA1535, Metabolic Activation: NONE, Method: STANDARD PLATE): inactive; negative
- mutagenic call (Test System: AMES SALMONELLA TYPHIMURIUM, Strain/Indicator: TA1535, Metabolic Activation: RAT, LIVER, S-9, AROCLOR 1254, Method: STANDARD PLATE): inactive; negative
- mutagenic call (Test System: AMES SALMONELLA TYPHIMURIUM, Strain/Indicator: TA1537, Metabolic Activation: HAMSTER, LIVER, S-9, AROCLOR 1254, Method: STANDARD PLATE): inactive; negative
- mutagenic call [6]: inactive; negative
- mutagenic call (Test System: AMES SALMONELLA TYPHIMURIUM, Strain/Indicator: TA1537, Metabolic Activation: RAT, LIVER, S-9, AROCLOR 1254, Method: STANDARD PLATE): inactive; negative
- mutagenic call (Test System: AMES SALMONELLA TYPHIMURIUM, Strain/Indicator: TA1538, Metabolic Activation: HAMSTER, LIVER, S-9, AROCLOR 1254, Method: STANDARD PLATE): inactive; negative
- mutagenic call (Test System: AMES SALMONELLA TYPHIMURIUM, Strain/Indicator: TA1538, Metabolic Activation: NONE, Method: STANDARD PLATE): inactive; negative
- mutagenic call (Test System: AMES SALMONELLA TYPHIMURIUM, Strain/Indicator: TA1538, Metabolic Activation: RAT, LIVER, S-9, AROCLOR 1254, Method: STANDARD PLATE): inactive; negative
- mutagenic call (Test System: Mouse lymphoma, Strain/Indicator: L5178Y (tk+/tk-), Metabolic Activation: None, Method: Suspension/plate): inactive; inconclusive (previous evaluation negative)
- mutagenic call (Test System: Mouse lymphoma, Strain/Indicator: L5178Y (tk+/tk-), Metabolic Activation: Rat, Liver, S-9, Aroclor 1254, Method: Suspension/plate): inactive; negative

Structure (SMILES): Oc1ccc(Nc2c3ccccc3nc3ccccc23)cc1
- mutagenic call [6]: active; positive
